Results reported in US10617140B2, “Iron-fortified food composition” (NESTEC S.A., priority 2015, dated 2020).

Experiment: Fortification of water: iron content on storage, ICP-AES (Example 7)
Type: physicochemical
Description: Processed water enriched with 20-30 ppm of sodium and potassium (600 mL) was iron fortified by the addition of different iron ingredients as reported in Table 10. The amounts were chosen to provide approximately 2.1 mg of iron per litre of water. The water was stored in an oven at 40° C. for 18 weeks. The iron content was measured for each sample through ICP-AES.

Ferrous sulfate
Iron content, Week 1 (processed water fortified at approx. 2.1 mg iron per litre, stored at 40° C., ICP-AES, week 1): 0 (Precipitate)
Iron content, Week 18 (processed water fortified at approx. 2.1 mg iron per litre, stored at 40° C., ICP-AES, week 18): 0 (Precipitate)
Behaviour in fortified water (precipitation / remaining in solution) (processed water stored at 40° C., up to 18 weeks): precipitates almost instantaneously
